From US11071775B2, “Combination immunotherapy for treating cancer” (H. Lee Moffitt Cancer Center and Research Institute, Inc., priority 2015, dated 2021)
Where two headings read alike, the source gives them in different places.

Legend:
[1] = tested on: Retinoid Acid Receptor (RAR) and Retinoid X Receptor (RXR); conditions: cited from earlier work
MDSC = assay: Randomized phase II study: proportion of MDSC before and after immunization; format: in vivo, human
Method: To assess immune response, PBMCs were collected from patients at different time points during the treatment (FIG. 4) and kept frozen in liquid nitrogen. All samples from one patient were analyzed simultaneously to reduce inter-experimental variability. PBMCs were thawed, incubated overnight in complete medium (RPMI-1640 supplemented with antibiotics and 10% FBS) and then used in experiments. Cell viability was greater than 80%.

human MDSCs = conditions: in vitro; cited from earlier work
MDSCs = assay: ATRA in patients with metastatic renal cell carcinoma: MDSC and DC; format: in vivo, human
Gr-1+ cells [2] = conditions: in vitro; cited from earlier work
Gr-1+ cells [3] = conditions: tumor-bearing mice, cited from earlier work
ES-SCLC = assay: Randomized phase II study in ES-SCLC (NCT00617409): objective response and survival; format: in vivo, human; conditions: arm A (observation, no vaccine)
From the text: Patients with ES-SCLC were enrolled to this randomized phase II study. […] After receiving initial chemotherapy, (4-6 cycles of a standard platinum/etoposide regimen as first-line chemotherapy), patients were enrolled and randomized. Additional eligibility included; stable disease (SD) or better with Eastern Cooperative Oncology Group (ECOG) performance status of 0 to 1, and adequate organ function were screened for initial registration approximately 4-6 weeks after the completion of first-line chemotherapy. Prophylactic cranial irradiation (PCI) was permitted.
Each vaccine consisted of 2-5×10^6 Ad-p53 DCs. Cells were injected intradermally, at two-week intervals for three times (three vaccine doses). Patients were restaged approximately 2 weeks after the 3rd vaccine dose. Patients without signs of disease progression (PD) underwent a second leukapheresis and then vaccinated 3 more times at 4-week intervals. Patients on Arm C also received 150 mg/m^2 ATRA for 3 days prior to each vaccine administration (followed by vaccine administration on the next day).
All patients were followed until evidence of PD at which time they received salvage or second line chemotherapy with single agent paclitaxel (200 mg/m2 IV every 3 weeks, 4-6 cycles).
The primary objective was to evaluate the efficacy of second line paclitaxel in the two experimental regimens (Arms B and C). […]

[4] = 38 patients; cited from earlier work
[5] = cited from earlier work
[6] = tested on: PD-L1 expressing or negative tumors; conditions: cited from earlier work; for overall response rate (ORR): all patients
advanced stage NSCLC = conditions: cited from earlier work

Compound: CC1=C(/C=C/C(C)=C/C=C/C(C)=C/C(=O)O)C(C)(C)CCC1 [ATRA, all-trans-retinoic acid]
- relative affinity for RAR and RXR [1]: higher affinity to RAR
- proportion of CD11b+CD14−CD33+ MDSC (MDSC; patients treated with ATRA (arm C), p=0.03): decreased less dramatically but also significantly
- presence of Lin−HLA-DR−CD33+ MDSC (MDSC; patients treated with ATRA (arm C: vaccine plus 150 mg/m2 ATRA), p=0.02): decreased more than two-fold
- fraction of MDSCs becoming DC-like (human MDSCs): ⅔
- fraction of MDSCs becoming myeloid (human MDSCs): ⅓
- MDSC/DC ratio (MDSCs): improved MDSC/DC ratio to control levels
- presence of MDSC (MDSCs): significantly decreased the presence of MDSC
- differentiation and immunosuppressive effect of Gr-1+ cells (Gr-1+ cells [2]): differentiates these cells in vitro and removes their immunosuppressive effect
- presence of Gr-1+ cells (Gr-1+ cells [3]; in vivo administration): dramatically reduces the presence of Gr-1^+ cells
- effect of tumor vaccines (Gr-1+ cells [3]): improves the effect of tumor vaccines

Compound: CC(=O)O[C@H]1C(=O)[C@@]2(C)[C@H]([C@H](OC(=O)c3ccccc3)[C@]3(O)C[C@H](OC(=O)[C@H](O)[C@@H](NC(=O)c4ccccc4)c4ccccc4)C(C)=C1C3(C)C)[C@]1(OC(C)=O)CO[C@@H]1C[C@@H]2O [paclitaxel]
- OR to paclitaxel (or other second line treatment) (ES-SCLC): 1/11

Compound: MK-3475: humanized monoclonal antibody of the IgG4/kappa isotype blocking the interaction between PD-1 and its ligands
- drug-related deaths [4]: no drug-related deaths
- grade 3/4 event (grade 3 pulmonary edema) [4]: one
- patients who developed grade 3/4 pneumonitis ([5]; 2 patients in each schedule): Four
- drug-related adverse event: arthralgia ([5]; 217 patients): 6.1%
- drug-related adverse event: pruritis ([5]; 217 patients): 5.4%
- drug-related adverse event: pyrexia ([5]; 217 patients): 3.6%
- patients with grade 3/4 drug-related adverse events ([5]; 217 patients): Six
- ORR ([6]; PD-L1 expressing tumors, RECIST, (16-30%)): 23%
- ORR ([6]; PD-L1 expressing tumors, irRC, 95% CI 14-26%): 19%
- ORR ([6]; PD-L1 negative tumors, RECIST, (2-23%)): 9%
- ORR ([6]; PD-L1 negative tumors, irRC, 95% CI 4-27%): 13%
- overall response rate (ORR) ([6]; RECIST v1.1, 95% CI 15-26%): 20%
- overall response rate (ORR) ([6]; irRC, 10 mg/kg Q2W or Q3W, 95% CI 13-24%): 18%
- patients responding to therapy (advanced stage NSCLC; PD-L1 high tumors, Six of 9, 95% CI 30-93%): 67%
- patients responding to therapy (advanced stage NSCLC; PD-L1 low tumors, 0/22, 95% CI 0-15%): 0%
- overall objective response rate (advanced stage NSCLC; investigator-assessed irRC, 38 patients): 24%
